Measured values reported in PubChem BioAssay AID493002 (Sanford-Burnham Center for Chemical Genomics, 2010).

System: S. cerevisiae tim23-1 mutant growth, luminescence
Test: potency against tim23-1 yeast growth – luminescence, uHTS hits, dose response (AID 493002);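 note: yeast grown roughly 22 hours at 25 °C before the luminescence read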

SMILES	IC50
O=C(Nc1ccc2c(c1)OCCO2)c1cccc(Cl)c1	11.6 µM
Brc1ccc(OCc2nnnn2-c2ccccc2)cc1	11.3 µM
N#C/C(=C/c1ccc(N2CCOCC2)o1)c1nc2ccccc2[nH]1	7.2 µM
CCCCC(=O)NC(c1ccc(Cl)cc1)c1ccc2cccnc2c1O (stereo not drawn)	9.68 µM
N#C/C(C(N)=O)=c1/ccc2c(c1)N1C3=C(CCCC3)CC3CCCCC31N=2 (stereo not drawn)	7.43 µM
Nc1nc(-c2ccc(-c3ccccc3)cc2)cs1	14.9 µM
COc1ccc(Nc2nc(N)c([N+](=O)[O-])c(NC3CCCCC3)n2)cc1	13.6 µM
COc1ccc(C(=O)COC(=O)c2cncc(Br)c2)cc1	10.1 µM
O=C(COC(=O)CC1CCCC1)Nc1ccc(Cl)cc1	13.2 µM
O=C1Nc2ccccc2/C1=C/c1ccccc1Cl	7.21 µM
CCOC(=O)Nc1cccc(NC(=O)c2ccccc2F)c1	13.3 µM
CCOc1cc2c3c(c1)C(C)CC(C)(C)N3C(=O)C2=O (stereo not drawn)	14.1 µM
O=C(c1ccc(-c2nc3ccccc3s2)s1)N1CCOCC1	19.2 µM
COc1ccc(O)c(-c2cc(-c3cccs3)[nH]n2)c1	12.4 µM
O=C1c2ccccc2C(=O)N1c1nc(-c2cccs2)cs1	3.63 µM
N#Cc1c(NC(=O)C2CC2)sc2c1CCCCC2	14.6 µM
COc1cc2c3c(c1)C(C)=CC(C)(C)N3C(=O)C2=O	8.81 µM
Oc1ccc(Oc2ccc(Oc3ccc(O)cc3)cc2)cc1	6.42 µM
Cc1ccnc(NC(=O)c2ccc3c(c2)C(=O)N(CC(C)C)C3=O)c1	13 µM
O=S(=O)(Nc1cccc(-c2nc3cccnc3s2)c1)c1ccc2c(c1)OCCO2	11.6 µM
Cc1ccc(SCC(=O)OCn2nnc3ccccc3c2=O)cc1C	9.99 µM
Cc1cc(C(=O)COC(=O)c2ccc([N+](=O)[O-])o2)c(C)n1CC1CCCO1 (stereo not drawn)	10.1 µM
Cc1cccc(N=Nc2cnc(N)s2)c1	15.1 µM
CCC1CCc2sc(C(=O)N(C)CC(=O)Nc3ccc(OC)cc3)cc2C1 (stereo not drawn)	19.5 µM
O=C(Nc1ccc2c(c1)OCCO2)c1cccc(Br)c1	14.5 µM

SMILES	IC50
O=C(Nc1ncc([N+](=O)[O-])s1)c1ccc2c(c1)OCO2	17.6 µM
Cc1nc2ccccc2c(=O)n1/N=C/c1cc(Br)ccc1O	6.9 µM
COc1ccc2c(c1)-c1nc(NC(=O)c3cccs3)sc1CC2	21.7 µM
O=C(/C=C/c1ccccc1)Nc1ccc2c(c1)OCCO2	11.7 µM
O=C(Nc1ccc(Nc2ccccc2)cc1)c1ccc(Cl)c([N+](=O)[O-])c1	6.25 µM
O=C(/C(=C/O)N=Nc1ccccc1)c1ccco1	10.7 µM
Nc1ccc(N=Nc2ccccc2O)c(N)c1	15.3 µM
Fc1ccccc1-c1cc2cc3c(cc2cn1)OCO3	16.1 µM
Cc1ccc(NCc2nc3ccccc3n2CCOc2ccccc2)cc1	10.4 µM
O=Cc1cccnc1SCc1ccccc1	12.6 µM
Cc1ccc(C(=O)Nc2nc(C(C)(C)C)cs2)s1	13.6 µM
CCOC(=O)c1c(C)oc2c1c(C(c1cccnc1)N1CCCCC1)c(O)c1ccccc12 (stereo not drawn)	21.5 µM
CCN(CC)c1ccc(/C=C2/C(=O)ON=C2C)cc1	14.6 µM
N#C/C(=C\c1ccc(OCc2ccccc2)cc1)C(N)=O	11.7 µM
CCN1C(=O)/C(=C2\SC(N3CCCCC3)=NC2=O)c2ccccc21	17.8 µM
CCOC(=O)c1ccc(NC(=O)CSc2nc(=O)n3cccc(C)c3n2)cc1	13 µM
CCOC(=O)c1sc(=NC(=O)c2ccco2)n(C)c1C	14.1 µM
O=C(Nc1ccc(C(=O)N2CCCc3ccccc32)cc1)c1cccs1	7.75 µM
c1ccc(-n2nc3c(ccc4cnnc43)[nH]2)cc1	24.5 µM
CC(C(Sc1ccccc1N)c1ccccc1)[N+](=O)[O-] (stereo not drawn)	3.92 µM
O=C(N/N=C/C(Br)=C/c1ccccc1)c1ccccc1F	12.3 µM
NC(=S)NNc1cc(Cl)cc(Cl)c1	10.5 µM
Cc1ccc(C(=O)NC2=NCCS2)cc1Cl	16.6 µM
Clc1nssc1=Nc1nncs1	3.05 µM
O=C(Nc1nc2ccccc2s1)C1CCCN1S(=O)(=O)c1ccc(Cl)cc1 (stereo not drawn)	8.08 µM

SMILES	IC50
CCOc1ccc(N=C(C)C2=C(O)c3ccccc3C2=O)cc1	11.2 µM
O=C1/C(=C/c2cccs2)COc2ccccc21	8.37 µM
O=C(NCCCc1ccccc1)Nc1cccc(Cl)c1	9.3 µM
CCC(=O)OCC(=O)[C@@]1(OC(=O)CC)[C@@H](C)C[C@H]2[C@@H]3CCC4=CC(=O)C=C[C@]4(C)[C@@]3(Cl)[C@@H](O)C[C@@]21C	14.9 µM
CN(C(=O)c1ccco1)c1nnc(C23CC4CC(CC(C4)C2)C3)s1	20.8 µM
COc1cccc(Nc2nc3ccc(OC)cc3s2)c1	10.1 µM
O=[N+]([O-])c1ccccc1S(=O)(=O)Nc1cccc2cccnc12	7.7 µM
O=C(Nc1scc(-c2ccccc2)c1C(=O)O)c1ccccc1F	12.2 µM
COCCNC(=O)/C(C#N)=C/c1ccc(OCc2ccccc2)cc1	9.3 µM
Cn1c(=O)c(C(=O)Nc2ccccn2)c(O)c2ccccc21	15.2 µM
Cc1ccc(O)c(N=Cc2cc(Cc3ccccc3)cc([N+](=O)[O-])c2O)c1	10.6 µM
O=C(Nc1ccc(-c2nc3ccccc3[nH]2)cc1)C1CCCO1 (stereo not drawn)	14.4 µM
CC(/C=N/NC(=O)c1cccs1)=C\c1ccco1	24.3 µM
c1ccc(-c2cc3ccccc3cn2)cc1	8.34 µM
O=C(Nc1ccc(F)c(Cl)c1)C1CC2CCC1C2 (stereo not drawn)	21.6 µM
c1ccc(N=Nc2cn[nH]c2-c2ccco2)cc1	11.3 µM
Brc1cccc(-c2n[nH]c(-c3ccccc3)n2)c1	11.5 µM
COc1ccccc1-c1cc(C(=O)N/N=C/c2ccc(C)s2)c2ccccc2n1	18.8 µM
Cc1ccc2nc(N3CCN(C=O)CC3)nc(-c3ccccc3)c2c1	11.9 µM
O=C(NC(=O)c1ccccc1F)OCc1ccc(Cl)cc1Cl	11.9 µM
CN(C)/C=C1/C=C(c2ccccc2)OC1=O	12 µM
Cc1ccc(NC(=O)c2cc(C)n(-c3ccccc3)c2C)cc1	21 µM
Oc1ccccc1-c1cc(-c2cccc(F)c2)n[nH]1	13.2 µM
COC(=O)c1ccc(NC(=O)c2nc(S(=O)(=O)Cc3cccc(C)c3)ncc2Cl)cc1	1.09 µM
CC(C)n1cc(NC(=O)c2cc(-c3ccccc3)on2)cn1	7.69 µM

SMILES	IC50
CC(C)(C)c1csc(NC(=O)c2ccc(Br)o2)n1	9.04 µM
c1ccc2[nH]c(CSc3nc4ccccc4o3)nc2c1	12.3 µM
NC(N)=N/N=C/c1ccc(OCc2ccccc2Cl)cc1	18 µM
CC(C)(C)c1csc(NC(=O)c2ccc(Cl)s2)n1	4.07 µM
Cn1c(-c2sc3ccccc3c2Cl)n[nH]c1=S	7.61 µM
COc1ccc2c(=O)c3c(=O)n(Cc4ccco4)c(-c4ccc(C)cc4)nc3oc2c1	20 µM
Cc1ccc2c(c1)C(=O)N1[C@H]3c4ccccc4OC[C@@H]3[C@H](c3ccccc3)[C@]1(C)C(=O)N2	4.99 µM
Nc1ccc(C(=O)Nc2nc3ccccc3s2)cc1	10.4 µM
O=C1/C(=C/c2cccs2)Cc2ccccc21	16.1 µM
Oc1ccc2ccccc2c1/C=N/c1nccs1	10.4 µM
Cc1nc2scc(C)n2c(=O)c1S(=O)(=O)Nc1ccc(OC(F)(F)F)cc1	6.96 µM
O=c1c2ccccc2[nH]c(=S)n1CCN1CCC(=C(c2ccc(F)cc2)c2ccc(F)cc2)CC1	5.44 µM
O=c1c(-c2ccc3c(c2)OCCO3)c(C(F)(F)F)oc2cc(O)cc(O)c12	12.6 µM
N#C/C(=C\c1ccc(O)cc1)c1nc2ccccc2o1	6.42 µM
CC1(C)c2cc(Cl)ccc2-n2c1cc(O)c(-c1ccccc1)c2=O	11.9 µM
C/C(=N\Nc1nc2ccccc2s1)c1cccs1	9.27 µM
COc1cc(/C=C/[N+](=O)[O-])ccc1OC(=O)c1cc2ccccc2oc1=O	4.02 µM
COc1cccc2sc3cc(NCc4ccc5c(c4)OCO5)ccc3c(=O)c12	12.3 µM
O=C(CSc1ccccc1)N/N=C/c1ccccc1O	27.5 µM
O=C(c1ccccc1)N1N=C(c2cccs2)CC1c1ccccc1O (stereo not drawn)	22.8 µM
COc1ccc(N2CCC(CNC(=S)Nc3ccc(C)cc3C)C2)cc1 (stereo not drawn)	7.54 µM
Cc1csc2nc(O)c(C(=O)NCCCc3ccccc3)c(=O)n12	7.87 µM
COc1cc(/C=N/NC(=O)c2ccc(N)cc2)ccc1OC(=O)c1cccc(C)c1	9.83 µM
N#C/C(=C\c1c[nH]c2ccccc12)C(=O)NC1CCCC1	31.5 µM
O=C(Nc1cccc(Br)c1)C1CCCC1	7.64 µM

SMILES	IC50
Cc1ccc(O)c(C(=O)c2cnn(C(=O)Cc3csc(C)n3)c2)c1	12.4 µM
Cc1ccc(NC(=S)NC(=O)C2CC2)cc1Cl	6.85 µM
O=C(NC(=S)NC(=O)c1ccccc1F)c1ccccc1F	6.11 µM
O=C(N/N=C/c1ccc2cccnc2c1)c1ccco1	18.8 µM
O=C(Nc1cc(-c2ccccc2)[nH]n1)c1ccccc1F	20.2 µM
CC1CCN(C(=O)c2ccc3c(c2)NC(=O)/C(=C/c2ccccc2)S3)CC1	13.6 µM
CCOC(=O)c1cccc(NC(=O)c2cc3ccccc3o2)c1	14.3 µM
Cc1cc2cc(CNC(=O)c3ccc(C)c([N+](=O)[O-])c3)ccc2[nH]1	9.14 µM
Cc1cccc(NC(=O)c2cc3ccccc3o2)c1	13 µM
Cc1ccc2[nH]cc(C(=O)CCl)c2c1	6.02 µM
CCN(CC)c1ccc(/C=N/NC(=O)c2ccc3c(c2)OCCO3)cc1	11.3 µM
Cn1c(C=O)c(C#Cc2ccccc2)c2ccccc21	6.21 µM
Cc1ccc(CNc2oc(-c3cccs3)nc2C#N)cc1	25.6 µM
C#CCOCCOCCOCCNc1nc(N2CCN(C(=O)CCCCCCCCCCNC(=O)[C@H](CCCCN)n3cc(C)nn3)CC2)nc(N2CCN(C(=O)CCCCCCCCCCNC(=O)[C@H](CCCN=C(N)N)n3cc(C[C@@H](C)CC)nn3)CC2)n1	10.4 µM
O=C(NC1CCCCC1)c1c(O)nc2sccn2c1=O	16.4 µM
O=C(CN1C(=O)S/C(=C/c2ccncc2)C1=O)Nc1ccccc1	13.5 µM
Oc1c(Cl)cc(Cl)cc1CNc1nccs1	15.3 µM
COn1c(=O)c(-c2cccs2)[n+]([O-])c2ccccc21	3.96 µM
COc1ccc(OC)c(-c2csc(NC(=O)Cc3ccc(F)cc3)n2)c1	9.63 µM
COC(=O)c1ccc2nc(NC(=O)C3CC3)sc2c1	7.12 µM
CCC(C)NC(=O)c1c(N)n(CCCOC)c2nc3ccccc3nc12 (stereo not drawn)	14.1 µM
CC(C)(C)c1ccc(Oc2ccc(N)cc2)cc1	4.63 µM
C[C@@]12C(=O)Nc3ccc(Br)cc3C(=O)N1[C@H]1c3ccccc3OC[C@@H]1[C@@H]2c1ccccc1	2.66 µM
